Consider one molecule from patent publication US20250221970A1, “Combinations of a B-RAF Inhibitor and an Anti-EGFR Antibody for the Treatment of Cancer” (MapKure, LLC, priority 2022, published 2025).

Structures are written as SMILES. Converted amounts (≈) assume the structure as drawn. Some results are limits rather than exact numbers.

A short description of data set [1]: Hygroscopicity of the solid form (Form F) of Compound A. The data set is classed as physicochemical. Conditions: at 80% relative humidity (RH).
The nature of data set [2]: Solid form stability of Form F at long-term and accelerated condition. The data set is classed as physicochemical.
A short description of data set [3]: Compound A monotherapy clinical study. The data set is classed as in vivo, human.
A short description of data set [4]: Solubility of the solid form (Form F) of Compound A. The data set is classed as physicochemical.
For data set [5], the system named is CYP3A. Nature of the data set: In vitro metabolism of Compound A. The data set is classed as in vitro ADME. Conditions: in vitro data.

Usually solubility stands for how much of the substance goes into solution per volume. Low values mean little dissolved substance, high ones much dissolved substance. As to `O=C1CCc2c(Oc3ccc4c(c3)[C@H]3[C@H](NC(=O)Nc5cc(F)c(F)cc5F)[C@H]3O4)ccnc2N1` [Compound A, 1-((1S,1aS,6bS)-5-((7-oxo-5,6,7,8-tetrahydro-1,8-naphthyridin-4-yl)oxy)-1a,6b-dihydro-1H-cyclopropa[b]benzofuran-1-yl)-3-(2,4,5-trifluorophenyl) urea], the “Hygroscopicity (classification)” value in data set [1] is “moderately hygroscopic”. In data set [1] (actual moisture of 81.5%), the “Hygroscopicity: moisture absorption” value was 81.5% and a moisture absorption of about 5.425%; the sample was. In addition, the “Stability: time Form F is in amorphous form” value in data set [2] (accelerated condition (40° C./75% RH)) is listed as “(25° C./60% RH) as well as for 6 months at accelerated condition (40° C./”; in data set [2] (long-term condition (25° C./60% RH)) it was “Form F is in amorphous form for 24 months at long-term condition”. In addition, in data set [3] (Compound A monotherapy, QD), the “MTD (maximum tolerated dose)” value came out at 40 mg. Moreover, the “Increased incidence of ocular AEs” value in data set [3] (emerging data from the ongoing Compound A clinical study) was “no evidence”. Moreover, the solubility in data set [4] (0.1N HCl, simulated gastric fluid, in 0.1N HCI) is 240 µg/mL (≈ 497 µM); in data set [4] (medium with 0.5% hexadecyl trimethyl ammonium bromide (HTAB), aqueous with cosolvent or surfactant or cyclodextrin, with 0.5% HTAB (hexadecyl trimethyl ammonium bromide)), 310 µg/mL (≈ 643 µM); in data set [4] (medium with 1% sodium lauryl sulphate (SLS), aqueous with cosolvent or surfactant or cyclodextrin, with 1% SLS (sodium lauryl sulphate)), 450 µg/mL (≈ 933 µM); in data set [4] (pH 4.5 buffer, pH 4.5, aqueous buffer), less than 5 µg/mL; in data set [4] (pH 6.8 buffer, pH 6.8, aqueous buffer), less than 5 µg/mL. In addition, the Main metabolic pathway entry in data set [5] is “mainly metabolized by the CYP3A pathway”.
